{"source": "patent US7465716B2", "about": "“Targeted drug delivery with a hyaluronan ligand” (The Regents of the University of California, priority 1999, dated 2008)", "key": {"[1]": {"test_system": "CV-1 cells", "experiment": "Chemosensitivity assay (SRB staining), CV-1 cells", "format": "cell-based, monkey", "conditions": "compared with B16F10 cells / free DOX", "excerpt": "FIGS. 5A and 5B show the DOX dose dependence cytotoxicity determined after treatment of B16F10 and CV-1 cells with non-encapsulated DOX and DOX-loaded HAL. […] To examine the specificity of the HAL we treated CV-1 cells with the three formulations. CV-1 cells express a very low level of CD44. […] Furthermore, the cytotoxicity of both the HAL and POPG liposomes was. similar, confirming the low interaction of the liposomes with CV-1 cells.\nThe cytotoxic effect of free DOX or Liposomes-encapsulated DOX on the cells was assayed colorimetrically by the sulforhodamine B (SRB) staining. A sample containing 16,000 B16F10 or 25,000 CV-1 cells (from an exponentially growing culture) in 100 μl aliquots were plated onto 96-well flat bottom microtiter plates. The culture plates were incubated for 24 hours at 37° C. and 5% CO2 and then the medium in each well was replaced with 100 μl serum-free and antibiotic-free medium containing various concentration of free or liposome-encapsulated DOX. For each 10-fold increase in drug concentration, four drug concentration levels were tested. […] The cultures were incubated at 4° C. for 1 h and then washed and analyzed for SRB staining of the monolayers as described. The measurement of the absorbance of the SRB at 564 nm in the monolayers was determined by an Optimax microplate reader (Molecular Devices, Sunnyvale, Calif.). […]"}, "[2]": {"test_system": "B16F10 lung tumors", "experiment": "Chemotherapy of mice with B16F10 lung tumors (Table 4)", "format": "in vivo, C57/BL6 mice", "conditions": "treated day 6, counted day 14, N = 9; HAL-dox and POPG-dox at 8 mg/kg", "method": "The drug delivery systems of this invention can be tested in the B16F10 lung metastases model. The number of B16F10 tumor nodules was enumerated in the lung of syngeneic C57/BL6 mice 14days after intravenouss injection into the tail vein of 1×10^5, 3×10^5 and 1×10^6 B16F10 cells/mouse in a volume of 0.2 mL PBS. These cell numbers were used because they span the range reported to give a countable number of nodules in previous investigations. The animals were sacrificed and the lungs were removed 14 days post inoculation of B16F10 cells, and then fixed in Bouin's solution. The visible tumor nodules were assessed and counted under dissecting microscope. N=9 per group. The dose of 3×10^5 cells/mouse yielded a suitable number of nodules to provide an adequate statistical analysis. […] The distribution of hyaluronanliposomes in B16F10 tumorial mice was measured on day 14 after innoculation. […] The animals (n=7) were sacrificed 3 hours after injection, the organs removed, the lungs were fixed in Bouin's solution and the radioactivity in each organ determined by gamma scintillation spectroscopy (Table 3).\nThe chemotherapeutic efficacy of doxorubicin delivered in various forms in the B16F10 lung tumor model was compared by counting the nodules on day 14 after innoculation of mice with B16F10. […] The animals were sacrificed and tumor nodules: counted on day 14. […]"}, "[3]": {"test_system": "B16-F10 tumor nodules in the lung", "experiment": "Effect of liposome composition on B16-F10 lung tumor nodules (Table 5)", "format": "in vivo, C57/BI6 mice", "conditions": "Doxorubicin 3 mg/kg on day 6, 10 mice/group", "method": "As shown above, the presence of the targeting hyaluronan lipid, the type of lipid anchor that the hyaluronan was attached to and the lipid composition of the targeted liposomes influenced the anti-tumor effect. In this example, doxorubicin was encapsulated in liposomes of different compositions (described below in the liposome preparation) and injected into C57/BI6 mice at a dose of 3 mg/kg on day 6 after the mice had received the B16-F10 tumor as described above.\nA specific, non-limiting example of doxorubicin loaded lipsome preparation involves thin lipid film hydration followed by sonication and extrusion. Briefly, the lipid components were weighed and dissolved in chloroform at the desired molar ratio(POPC:Chol:HA4-POPE:aT 60:40:3:0.1; POPC:Chol:POPG:aT 60:40:9:0.1; HSPC:Chol:PEG-DSPE:aT 56.2:38.3:5.3:0.1; HSPC:Chol:DPPG:aT 56.2:38.3:5.3:0.1; HSPC:Chol:HA4-DPPE:aT 56.2:38.3:5.3:0.1). […] Phospholipid concentration was determined by a phosphorous assay. DOX concentrations were determined by measurement of absorbance at 480 nm (using a molar coefficient=12,500) after solubilization of the liposomes in 90% isopropyl alcohol containing 0.075 M HCl. […] For both POPC and HSPC liposomes, mean vesicle diameter as measured by dynamic light scattering using the multimodal program was 120-150 nm (SD<35% of the mean) with a monodisperse particle size distribution. […]"}, "[4]": {"test_system": "B16-F10 tumor nodules in the lung", "experiment": "Dose response on B16-F10 lung tumor nodules (Table 6)", "format": "in vivo, C57/BI6 mice", "method": "In this experiment groups of 10 animals were inoculated with the tumor cells on day zero and treated with the various formulations on day 6 as described above. To keep the lipid concentration constant as the dose of liposome encapsulated drug was reduced, HAL-Dox formulations were diluted with empty DSPG liposome (HSPC:Chol:DSPG 60:40:9 mole ration) to maintain the total lipid concentration at 1 micromole."}, "[5]": {"conditions": "0.3 mg/kg, HAL-Dox = HAL-DPPE encapsulated Dox"}, "[6]": {"conditions": "1 mg/kg, HAL-Dox = HAL-DPPE encapsulated Dox"}, "[7]": {"conditions": "3 mg/kg, HAL-Dox = HAL-DPPE encapsulated Dox"}, "[8]": {"conditions": "10 mg/kg, treated day 6, groups of 10"}}, "data": [{"smiles": "COc1cccc2c1C(=O)c1c(O)c3c(c(O)c1C2=O)C[C@@](O)(C(=O)CO)C[C@@H]3O[C@H]1C[C@H](N)[C@H](O)[C@H](C)O1", "note": "[free DOX, Doxorubicin]", "values": [{"measurement": "cytotoxicity to CV-1 cells (in words)", "setting": "[1]", "value": "significantly lower"}, {"measurement": "# nodules Mean", "setting": "[2]", "value": "56.11 ± 49.48"}, {"measurement": "# nodules Median", "setting": "[2]", "value": 45}, {"measurement": "# nodules Mean", "setting": "[3]", "value": "171.60 ± 71.79"}, {"measurement": "# nodules Median", "setting": "[3]", "value": 179}, {"measurement": "# nodules Mean", "setting": "[4]; [5]", "value": "248.1 ± 56.9"}, {"measurement": "# nodules Median", "setting": "[4]; [5]", "value": 250.5}, {"measurement": "# nodules Mean", "setting": "[4]; [6]", "value": "265.9 ± 34.5"}, {"measurement": "# nodules Median", "setting": "[4]; [6]", "value": 277}, {"measurement": "# nodules Mean", "setting": "[4]; [7]", "value": "208.2 ± 82.1"}, {"measurement": "# nodules Median", "setting": "[4]; [7]", "value": 191}, {"measurement": "# nodules Mean", "setting": "[4]; [8]", "value": "157.9 ± 70.6"}, {"measurement": "# nodules Median", "setting": "[4]; [8]", "value": 151}]}]}
